Measured values from patent US12448400B2, “KRAS G12D modulating compounds” (priority 2023, dated 2025).

tested on: GP2D (KRAS G12D) cells; assay: 2D cell viability assay (CellTiter-Glo); format: cell-based; conditions: 96 h; GP2D cells, 4 days, CellTiter-Glo luminescence; read-out: G12D 2D EC50
Description: Example B. 2D Cell Viability Assay
Compounds were tested in a 384-well format for their ability to inhibit the viability of GP2D (KRAS G12D) cells in 2D assays. Compounds were serially diluted (1:3) in DMSO. The LabCyte ECHO Acoustic dispenser system was used to pre-spot assay plates with 200 nL of test molecule per well. 1000 cells/well (40 μL volume per well) in RPMI medium with 10% FBS, and Penicillin-Streptomycin-Glutamine were plated in pre-spotted 384-well plates (Greiner, Catalog #781076) on the BioTEK EL406 liquid dispenser with a 5 μL dispensing cassette (BioTek 7170011). The plates were incubated at 37° C., 5% CO2 for 4 days before addition of CellTiter-Glo (CTG) reagent and measurement of luminescence signal. EC50 values were defined as the compound concentration that causes a 50% decrease in luminescence signal and were calculated using a sigmoidal dose-response model to generate curve fits.

Going from `CCc1c(F)ccc2cc(O)cc(-c3c(F)c4c5c(nc(OC[C@@]67CCCN6C[C@H](F)C7)nc5c3F)N3C[C@H]5CC[C@H](N5)[C@H]3CCC4)c12` (atropisomer, axis not shown; (aR)) [Example 77-P, 4-((1S,4R,11R,15aR)-10,12-difluoro-8-(((2R,7aS)-2-fluorotetrahydro-1H-pyrrolizin-7a(5H)-yl)methoxy)-2,3,4,5,13,14,15,15a-octahydro-1H-1,4-epiminoazepino[1′,2′:1,8]azocino[2,3,4-de]quinazolin-11-yl)-5-ethyl-6-fluoronaphthalen-2-ol] to `C[C@H]1Cc2c(Cl)c(-c3ccc(F)c4sc(N)c(C#N)c34)c(F)c3nc(OC[C@@]45CCCN4C[C@H](F)C5)nc(c23)N2C[C@H]3CC[C@H](N3)[C@H]12` (atropisomer, axis not shown; (aS)) [Example 71-P, 2-amino-4-((1S,4R,11R,14S,14aS)-12-chloro-10-fluoro-8-(((2R,7aS)-2-fluorotetrahydro-1H-pyrrolizin-7a(5H)-yl)methoxy)-14-methyl-1,2,3,4,5,13,14,14a-octahydro-1,4-epiminoazepino[1′,2′:1,7]azepino[2,3,4-de]quinazolin-11-yl)-7-fluorobenzo[b]thiophene-3-carbonitrile], the EC50 falls from 0.29 nM to 0.18 nM (1.6-fold). The second is the more potent here.

Compared with `C#Cc1c(F)ccc2cc(O)cc(-c3c(F)c4c5c(nc(OC[C@]6(C)CN(C)CC[C@@H]6C(F)F)nc5c3F)N3C[C@H]5CC[C@@H]([C@H]3CCC4)N5Cc3oc(=O)oc3C)c12` (atropisomer, axis not shown; (aR)) [Example 78, 4-(((1S,4R,15aR)-8-(((3S,4S)-4-(difluoromethyl)-1,3-dimethylpiperidin-3-yl)methoxy)-11-((R)-8-ethynyl-7-fluoro-3-hydroxynaphthalen-1-yl)-10,12-difluoro-2,3,4,5,13,14,15,15a-octahydro-1H-1,4-epiminoazepino[1′,2′:1,8]azocino[2,3,4-de]quinazolin-16-yl)methyl)-5-methyl-1,3-dioxol-2-one], `C#Cc1c(F)ccc2cc(OC(=O)O[C@@H](C)C(C)C)cc(-c3nc4c5c(nc(OC[C@@]67CCCN6C[C@H](F)C7)nc5c3F)N3C[C@H]5CC[C@@H]([C@H]3CCC4)N5Cc3oc(=O)oc3C)c12` [Example 39, 5-ethynyl-6-fluoro-4-((6aR,7S,10R)-1-fluoro-13-(((2R,7aS)-2-fluorotetrahydro-1H-pyrrolizin-7a(5H)-yl)methoxy)-15-((5-methyl-2-oxo-1,3-dioxol-4-yl)methyl)-5,6,6a,7,8,9,10,11-octahydro-4H-3,11a,12,14,15-pentaaza-7,10-methanocyclohepta[4,5]cycloocta[1,2,3-de]naphthalen-2-yl)naphthalen-2-yl ((S)-3-methylbutan-2-yl) carbonate] is 3.2-fold higher in EC50: 0.08 nM for the first, 0.26 nM for the second.

First: Cc1oc(=O)oc1CN1[C@@H]2CC[C@H]1[C@@H]1[C@@H](C)Cc3c(Cl)c(-c4ccc(F)c5sc(N)c(C#N)c45)c(F)c4nc(OC[C@@]56CCCN5C[C@H](F)C6)nc(c34)N1C2 (atropisomer, axis not shown; (aS)) [Example 71, 2-amino-4-((1S,4R,11R,14S,14aS)-12-chloro-10-fluoro-8-(((2R,7aS)-2-fluorotetrahydro-1H-pyrrolizin-7a(5H)-yl)methoxy)-14-methyl-15-((5-methyl-2-oxo-1,3-dioxol-4-yl)methyl)-1,2,3,4,5,13,14,14a-octahydro-1,4-epiminoazepino[1′,2′:1,7]azepino[2,3,4-de]quinazolin-11-yl)-7-fluorobenzo[b]thiophene-3-carbonitrile]
Second: C#Cc1c(F)ccc2cccc(-c3nc4c5c(nc(OC[C@@]67CCCN6C[C@H](F)C7)nc5c3F)N3C[C@H]5CC[C@@H]([C@H]3CCC4)N5Cc3oc(=O)oc3CCCCC)c12 [Example 20, 4-(((6aR,7S,10R)-2-(8-ethynyl-7-fluoronaphthalen-1-yl)-1-fluoro-13-(((2R,7aS)-2-fluorotetrahydro-1H-pyrrolizin-7a(5H)-yl)methoxy)-5,6,6a,7,8,9,10,11-octahydro-4H-3,11a,12,14,15-pentaaza-7,10-methanocyclohepta[4,5]cycloocta[1,2,3-de]naphthalen-15-yl)methyl)-5-pentyl-1,3-dioxol-2-one]
The EC50 of the first is 12-fold lower: 0.41 nM for the first, 5 nM for the second.

Compared with `C#Cc1c(F)ccc2cccc(-c3nc4c5c(nc(OC[C@@]67CCCN6C[C@H](F)C7)nc5c3F)N3C[C@H]5CC[C@@H]([C@H]3CCC4)N5Cc3oc(=O)oc3CCCCCC)c12` [Example 21, 4-(((6aR,7S,10R)-2-(8-ethynyl-7-fluoronaphthalen-1-yl)-1-fluoro-13-(((2R,7aS)-2-fluorotetrahydro-1H-pyrrolizin-7a(5H)-yl)methoxy)-5,6,6a,7,8,9,10,11-octahydro-4H-3,11a,12,14,15-pentaaza-7,10-methanocyclohepta[4,5]cycloocta[1,2,3-de]naphthalen-15-yl)methyl)-5-hexyl-1,3-dioxol-2-one], `CCCCCCc1oc(=O)oc1CN1[C@@H]2CC[C@H]1[C@H]1CCCc3nc(-c4cc(O)cc5ccc(F)c(OC(F)(F)F)c45)c(F)c4nc(OC[C@@]56CCCN5C[C@H](F)C6)nc(c34)N1C2` [Example 24, 4-(((6aR,7S,10R)-1-fluoro-2-(7-fluoro-3-hydroxy-8-(trifluoromethoxy)naphthalen-1-yl)-13-(((2R,7aS)-2-fluorotetrahydro-1H-pyrrolizin-7a(5H)-yl)methoxy)-5,6,6a,7,8,9,10,11-octahydro-4H-3,11a,12,14,15-pentaaza-7,10-methanocyclohepta[4,5]cycloocta[1,2,3-de]naphthalen-15-yl)methyl)-5-hexyl-1,3-dioxol-2-one] is 4.7-fold lower in EC50: 5.2 nM for the first, 1.1 nM for the second.

`CCCCc1oc(=O)oc1CN1[C@@H]2CC[C@H]1[C@H]1CCCc3nc(-c4cc(O)cc5ccc(F)c(OC(F)(F)F)c45)c(F)c4nc(OC[C@@]56CCCN5C[C@H](F)C6)nc(c34)N1C2` [Example 22, 4-butyl-5-(((6aR,7S,10R)-1-fluoro-2-(7-fluoro-3-hydroxy-8-(trifluoromethoxy)naphthalen-1-yl)-13-(((2R,7aS)-2-fluorotetrahydro-1H-pyrrolizin-7a(5H)-yl)methoxy)-5,6,6a,7,8,9,10,11-octahydro-4H-3,11a,12,14,15-pentaaza-7,10-methanocyclohepta[4,5]cycloocta[1,2,3-de]naphthalen-15-yl)methyl)-1,3-dioxol-2-one] and `CCCCCc1oc(=O)oc1CN1[C@@H]2CC[C@H]1[C@H]1CCCc3nc(-c4cc(O)cc5ccc(F)c(OC(F)(F)F)c45)c(F)c4nc(OC[C@@]56CCCN5C[C@H](F)C6)nc(c34)N1C2` [Example 23, 4-(((6aR,7S,10R)-1-fluoro-2-(7-fluoro-3-hydroxy-8-(trifluoromethoxy)naphthalen-1-yl)-13-(((2R,7aS)-2-fluorotetrahydro-1H-pyrrolizin-7a(5H)-yl)methoxy)-5,6,6a,7,8,9,10,11-octahydro-4H-3,11a,12,14,15-pentaaza-7,10-methanocyclohepta[4,5]cycloocta[1,2,3-de]naphthalen-15-yl)methyl)-5-pentyl-1,3-dioxol-2-one] are within 1.5-fold of each other in EC50: 0.85 nM for the first, 0.92 nM for the second.
